The text below walks through data of PubChem BioAssay (NCI).

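1) Cells in 96-well plates. 2) Compound, 48 h, 5 concentrations. 3) Linear interpolation between surrounding doses. 4) Unreached endpoint = highest concentration. Here, GI50 denotes the concentration required for 50% inhibition of growth. TGI denotes the concentration required for complete inhibition of growth.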 Bounds are passed on as bounds.

Common to all, as to experiment: NCI tumour cell line growth inhibition, 48 h
Assay [1] relates to BT-549 breast.
Assay [2] has as its system LXFL 529 NSCLC.
Assay [3] relates to XF 498 CNS.
The subject of assay [4] is P388 leukemia.
For assay [5], the system named is SN12K1 renal.
The subject of assay [6] is P388/ADR leukemia.

For the compound `Cc1c(CNc2ccc(C(=O)NC(CC(=O)O)C(=O)O)cc2)ccc2nc(N)nc(N)c12` (stereo not given), in assay [1], the GI50 is > 1 mM and the TGI was > 1000 µM.
On to `Cc1cccc(C(C)C)c1NC(=O)CC1Sc2ccccc2NC1=O` (stereo not given), for which the TGI in assay [2] and in assay [3] was > 100 µM each time.
`CN1CCN(CN2C(=O)C3C4C=CC(C3C2=O)C2C(=O)N(CN3CCN(C)CC3)C(=O)C42)CC1` (stereo not given): in assay [1], the TGI is > 100 µM.
On to `CC(C)=CCc1c(O)ccc2ccc(=O)oc12`, for which the TGI in assay [4], in assay [5] and in assay [6] was > 100 µM in each case.
For `COc1cccc2c1C(=O)c1c(O)c3c(c(O)c1C2=O)C[C@@](O)(C(=O)CO)C[C@@H]3OC1CC(N)C(OC)C(C)O1` (stereo not given in full), the TGI in assay [1] stood at 1.47 µM; in assay [2], 0.432 µM.
As to `CC#C[P+](c1ccccc1)(c1ccccc1)c1ccccc1`, the TGI was 12.6 µM in assay [2] and 7.26 µM in assay [3].
Turning to `COc1cc2c3c(c4cc(OC)c(OC)cc4c2cc1OC)C(=O)C1CCC(=O)N1C3` (stereo not given), the TGI in assay [1] is > 100 µM.
For the compound `CCCC(O)C(NC(=O)CCl)C(=O)O` (stereo not given), the TGI in assay [4], in assay [5], in assay [6] and in assay [3] was > 100 µM in each case.
On to `COc1cc2c(cc1O)C1C(O)C(O)C=C3CCN(C2)C31` (stereo not given), for which the figures for the TGI in assay [2] and in assay [3] were 34.9 µM and 4.36 µM, respectively.
In the case of `NCCCNCCCCNCCCN`, the TGI in assay [1] was > 24.5 µM.
